From patent publication US20190269626A1, “Hair Protection Effect of Vanillyl Alkyl Ether and the Application thereof” (CORUM INC., priority 2018, published 2019)

Tests used:
[1] = tested on: PMA-induced inflammatory cytokines (IL-6 and IL-8) in HFDPC (human follicle dermal papilla cells); assay: PMA-induced inflammatory cytokines (IL-6 and IL-8) in HFDPC; format: cell-based
Description: Still another example of this embodiment is application of VBE on decreasing PMA-induced inflammation (IL-6 and IL-8). […] Capsaicin, nonivamide, and minoxidil are effectless to PMA-induced IL-6, and IL-8.

ROS generation in HFDPC = assay: ROS generation with/without pollutant in HFDPC; format: cell-based, human; conditions: for ROS generation, pollutant-stimulated condition: pollutant-triggered; for ROS generation, basal condition: without pollutant (basal)
Description: FIG. 4A to FIG. 4B respectively presents with/without pollutant-triggered ROS generation on HFDPC by VBE, and CAP (capsaicin). […] Hair follicle is a mini-organ of the skin which contains dermal papilla cells (DPC) in the bottom site surrounded with matrix cells (keratinocytes) and melanocytes. DPC play an important role to regulate matrix cell proliferation, differentiation and apoptosis during hair cycles, and matrix cells are responsible for forming the major structures of the hair shaft. In the above examples, we established an in vitro model to investigate hair loss mechanism caused by air pollution. Based on our data, SRM1649b (urban dust) PM2.5 is able to activate AhR pathway, enhance ROS generation, up-regulate gene expression of alopecia-related factors (TGF-β2, TNF-α and PTGS2) and stimulate inflammatory cytokines (IL-6, IL-8, and GM-CSF) in human hair follicle dermal papilla cells. […] The mechanism of air pollution induced hair loss is illustrated in FIG. 5.

[2] = tested on: LPS-induced inflammatory cytokines (IL-6 and IL-8) in macrophages; assay: LPS-induced inflammatory cytokines (IL-6 and IL-8) in macrophages; format: cell-based
Description: One preferred example of this embodiment is application of VBE on decreasing LPS-induced inflammation (IL-6, and IL-8).

[3] = tested on: hair loss related genes expression (CYP1B1, TGF-β2, and TNF-α) in HFDPC; assay: Pollutant-induced hair loss related genes expression in HFDPC; format: cell-based, human
Description: Still another example of this embodiment is application of VBE on decreasing pollutant-induced hair loss related genes expression (CYP1B1, TGF-β2, and TNF-α) on HFDPC. FIG. 3 presents pollutant-induced hair loss related genes expression (CYP1B1, TGF-β2, and TNF-α) by VBE, and DMF. DMF is 3′,4′-dimethoxyflavone, and is a AhR (aryl hydrocarbon receptor) antagonist. Pollutants usually generate damages though activating the transcription factor AhR.
(§1) FIG. 5 presents how to improve hair loss of human hair follicle dermal papilla cells with VBE according to the above examples. Hair follicle is a mini-organ of the skin which contains dermal papilla cells (DPC) in the bottom site surrounded with matrix cells (keratinocytes) and melanocytes. DPC play an important role to regulate matrix cell proliferation, differentiation and apoptosis during hair cycles, and matrix cells are responsible for forming the major structures of the hair shaft. In the above examples, we established an in vitro model to investigate hair loss mechanism caused by air pollution. Based on our data, SRM1649b (urban dust) PM2.5 is able to activate AhR pathway, enhance ROS generation, up-regulate gene expression of alopecia-related factors (TGF-β2, TNF-α and PTGS2) and stimulate inflammatory cytokines (IL-6, IL-8, and GM-CSF) in human hair follicle dermal papilla cells. […] The mechanism of air pollution induced hair loss is illustrated in FIG. 5.

5-alpha reductase = 5-alpha reductase activity: DHT/Testosterone ratio in NHEK with [14C] testosterone; format: cell-based, human
[4] = tested on: anagen hairs and telogen hairs; assay: Clinical evaluation of VBE versus placebo, phototrichogram hair growth cycle analysis; format: in vivo, human; conditions: topical once a day for 84 days, half-head versus placebo, subjects with androgenetic alopecia
Protocol: Another example of this embodiment is clinical evaluation of the effect of VBE versus placebo in the male and female subjects after repeated application of 84 days through. The clinical test is finished by Spincontrol, France. The evaluation was performed using phototrichogram for hair growth cycle analysis. 11 healthy subjects from 25 to 49 years with a chronic hair loss/alopecia of androgenetic origin were selected for this study.

[5] = tested on: AhR pathway in human hair follicle dermal papilla cells; assay: Air pollution (SRM1649b urban dust PM2.5) in vitro hair loss model in HFDPC: AhR activity and GM-CSF; format: cell-based
Description: as §1, with “Hair” for “FIG. 5 presents how to improve hair loss of human hair follicle dermal papilla cells with VBE according to the above examples. Hair”

| SMILES | PMA-induced IL-6 [1] | PMA-induced IL-8 [1] | ROS generation, pollutant-stimulated condition (ROS generation in HFDPC) | ROS generation, basal condition (ROS generation in HFDPC) | LPS-induced IL-6 [2] | LPS-induced IL-8 [2] | pollutant-induced CYP1B1 gene expression [3] | pollutant-induced TGF-β2 gene expression [3] | pollutant-induced TNF-α gene expression [3] | further results |
| --- | --- | --- | --- | --- | --- | --- | --- | --- | --- | --- |
| Nc1cc(N2CCCCC2)nc(N)[n+]1[O-] [Minoxidil] | no effect | no effect |  |  |  |  |  |  |  |  |
| COc1cc(CNC(=O)CCCC/C=C/C(C)C)ccc1O [Capsaicin] | no effect | no effect | no effect | no effect | decreased | decreased |  |  |  |  |
| COc1ccc(-c2cc(=O)c3ccccc3o2)cc1OC [DMF, 3′,4′-dimethoxyflavone] |  |  |  |  |  |  | reducing | reducing | reducing |  |
| CCCCOCc1ccc(O)c(OC)c1 [VBE, vanillyl butyl ether] | decrease | decrease | decreased | decreased | decrease | decrease | reduce | reduce | reduce | DHT/Testosterone ratio compared to control (5-alpha reductase; 50 μg/ml): 64%; DHT/Testosterone ratio, dose dependence (5-alpha reductase; 1.25 to 50 μg/ml): decreases DHT/Testosterone ratio in a dose dependent manner; Anagen (growing) hair [4]: increased; Telogen (resting or shedding) hair [4]: reduced; enhancement of ratio of Anagen to Telogen [4]: 6%; AhR activity [5]: attenuating; GM-CSF production [5]: attenuating |
| CC(C)(C)NC(=O)[C@H]1CC[C@H]2[C@@H]3CC[C@H]4NC(=O)C=C[C@]4(C)[C@H]3CC[C@]12C [finasteride] |  |  |  |  |  |  |  |  |  | DHT/testosterone ratio compared to the control condition (5-alpha reductase; finasteride reference): 1% |
| CCCCCCCCC(=O)NCc1ccc(O)c(OC)c1 [Nonivamide] | no effect | no effect |  |  | decreased | decreased |  |  |  |  |
